Key:
[1] = Rat PO cassette assay (oral bioavailability); type: in vivo, Sprague-Dawley rats; conditions: male, Sprague-Dawley, plasma, single oral gavage vs intravenous dose, 0.5 mg/kg
Text: Oral bioavailability, or % F, is a measure of the percentage of a drug in an oral dose that actually reaches the systemic circulation. Compound losses can occur due to incomplete formulation dissolution, incomplete absorption due to compound insolubility or instability along the GI, or metabolism in the gut or across the gut wall. The fraction of the dose which reaches the hepatic portal vein must also then pass through the liver before reaching the systemic circulation. Compound metabolism, or “first-pass extraction,” can occur during this initial passage through the liver, and this is an additional potential source of compound loss. Oral bioavailability is calculated as the dose-normalized ratio of drug exposure after an oral dose to that after an intravenous dose, wherein the entire dose is delivered directly to the systemic circulation.
Each cassette study begins with 10 mM DMSO stock solutions of up to 5 different compounds. Typically, compounds are selected such no two compounds dosed in the same cassette have a molecular weight within 5 Da of each other. This simplifies subsequent bioanalysis. Appropriate volumes of each DMSO stock are added into a volume of vehicle (5% sodium bicarbonate, 5% dextrose in H2O) such that the final concentration of each compound is 0.25 mg/mL. Intravenous dosing solutions are sterile-filtered (0.2 μm) prior to dosing.
Pre-cannulated male Sprague-Dawley rats (3 per cassette per route) between 8 and 10 weeks of age were obtained from Harlan Laboratories (Indianapolis, Ind.). Rats received either a single oral gavage or a single intravenous (via lateral tail vein) dose (2 mL/kg) of the dosing solution. The final dose was 0.5 mg/kg. Serial blood samples were harvested via jugular vein cannula at 3 minutes, 15 minutes, 30 minutes, 1 hours, 2 hours, 4 hours, 6 hours, and 24 hours post-dose. Sampling was performed either manually or using automated blood samplers. Samples were collected into microtainer tubes containing EDTA as the anticoagulant and are processed to plasma by refrigerated centrifugation.
Plasma samples were extracted with 3 volumes of MeCN containing a suitable internal standard. Extracts were reconstituted into 3 volumes of water containing 1% formic acid, and analyzed via HPLC-coupled MS/MS. Plasma concentration-time data were analyzed using the Phoenix software (Pharsight Corp., St. Louis, Mo.) to calculate pharmacokinetic parameters.
Compounds of the invention of particular interest were those having a % F>10%, when tested in this assay.

[2] = target: human NEP (Homo sapiens (Human), UniProt P08473); experiment: In vitro enzyme inhibition assay at human NEP; conditions: recombinant human NEP, fluorogenic peptide substrate, 37° C.; for Ki: pKi
Sequence of human NEP (P08473 52-750): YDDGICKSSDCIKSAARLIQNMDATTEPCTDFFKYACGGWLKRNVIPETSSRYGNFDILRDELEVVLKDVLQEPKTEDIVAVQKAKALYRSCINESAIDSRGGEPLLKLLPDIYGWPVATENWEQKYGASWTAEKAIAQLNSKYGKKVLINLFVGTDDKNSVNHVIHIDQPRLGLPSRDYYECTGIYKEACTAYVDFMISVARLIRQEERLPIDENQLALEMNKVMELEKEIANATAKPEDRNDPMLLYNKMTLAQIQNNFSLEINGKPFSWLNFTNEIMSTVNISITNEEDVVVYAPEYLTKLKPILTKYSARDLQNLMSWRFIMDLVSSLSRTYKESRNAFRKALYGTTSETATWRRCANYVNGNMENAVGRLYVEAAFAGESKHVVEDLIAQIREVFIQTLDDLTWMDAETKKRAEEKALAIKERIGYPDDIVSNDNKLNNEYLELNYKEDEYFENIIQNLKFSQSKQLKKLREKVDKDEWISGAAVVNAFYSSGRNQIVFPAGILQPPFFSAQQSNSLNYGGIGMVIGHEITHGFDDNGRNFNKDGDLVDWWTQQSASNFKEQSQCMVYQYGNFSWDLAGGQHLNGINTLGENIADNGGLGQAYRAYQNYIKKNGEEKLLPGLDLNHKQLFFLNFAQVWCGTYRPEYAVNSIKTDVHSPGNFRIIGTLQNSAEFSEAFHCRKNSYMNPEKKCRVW

Structure (SMILES)	bioavailability [1] [%]	pKi [2]	Ki [2] [nM]
CCOC(=O)[C@@H](C[C@@H](Cc1ccc(-c2cc(Cl)ccc2F)cc1)NC(=O)c1cnn[nH]1)CN1CC(F)C1 [Example 91a, (2S,4S)-5-(5′-Chloro-2′-fluorobiphenyl-4-yl)-2-(3-fluoroazetidin-1-ylmethyl)-4-[(3H-[1,2,3]triazole-4-carbonyl)amino]pentanoic Acid Ethyl Ester]	> 10	–	–
N[C@H](C[C@@H](Cc1ccc(-c2cc(Cl)ccc2F)cc1)NC(=O)c1cc(-c2ccccc2Cl)no1)C(=O)O [Example 16-24, (2R,4R)-2-Amino-5-(5′-chloro-2′-fluorobiphenyl-4-yl)-4-{[3-(2-chlorophenyl)-isoxazole-5-carbonyl]amino}pentanoic acid]	> 10	≧9.0	–
CCOC(=O)[C@H](N)C[C@@H](Cc1ccc(-c2cc(Cl)ccc2F)cc1)NC(=O)c1coc(=O)[nH]1 [Example 16-32, (2R,4R)-2-Amino-5-(5′-chloro-2′-fluorobiphenyl-4-yl)-4-[(2-oxo-2,3-dihydro-oxazole-4-carbonyl)amino]pentanoic acid ethyl ester]	> 10	–	–
COC[C@H](C[C@@H](Cc1ccc(-c2ccccc2)cc1)NC(=O)c1c[nH]nn1)C(=O)O [Example 5, (2S,4S)-5-Biphenyl-4-yl-2-methoxymethyl-4-[(1H-[1,2,3]-triazole-4-carbonyl)amino]pentanoic Acid]	> 10	≧9.0	–
CCOC(=O)[C@H](N)C[C@@H](Cc1ccc(-c2cc(Cl)ccc2F)cc1)NC(=O)c1cnn[nH]1 [Example 14a, (2R,4R)-2-Amino-5-(5′-chloro-2′-fluorobiphenyl-4-yl)-4-[(3H-[1,2,3]triazole-4-carbonyl)amino]pentanoic Acid Ethyl Ester]	> 10	–	10 to 31.6
Cc1ccccc1-c1n[nH]c(C(=O)N[C@H](Cc2ccc(-c3cc(Cl)ccc3F)cc2)C[C@@H](N)C(=O)O)c1F [Example 16-23, (2R,4R)-2-Amino-5-(5′-chloro-2′-fluorobiphenyl-4-yl)-4-[(4-fluoro-5-o-tolyl-2H-pyrazole-3-carbonyl)amino]pentanoic acid]	> 10	≧9.0	–
COC[C@H](C[C@@H](Cc1ccc(-c2cccc(Cl)c2)cc1)NC(=O)c1cnn[nH]1)C(=O)O [Example 3, (2S,4S)-5-(3′-Chlorobiphenyl-4-yl)-2-methoxymethyl-4-[(3H-[1,2,3]triazole-4-carbonyl)amino]pentanoic Acid]	> 10	≧9.0	–
COC(=O)N[C@H](C[C@@H](Cc1ccc(-c2cc(Cl)ccc2F)cc1)NC(=O)c1ccc(Cl)cn1)C(=O)O [Example 30-12, (2R,4R)-5-(5′-Chloro-2′-fluorobiphenyl-4-yl)-4-[(5-chloro-pyridine-2-carbonyl)-amino]-2-methoxycarbonylaminopentanoic acid]	> 10	≧9.0	–
CCOC(=O)[C@@H](C[C@@H](Cc1ccc(-c2cc(Cl)ccc2F)cc1)NC(=O)c1cnn[nH]1)CN1CCOCC1 [Example 69b, (2S,4S)-5-(5′-Chloro-2′-fluorobiphenyl-4-yl)-2-morpholin-4-ylmethyl-4-[(3H-[1,2,3]triazole-4-carbonyl)amino]pentanoic Acid Ethyl Ester]	> 10	–	–
CCCCCCOC(=O)[C@H](N)C[C@@H](Cc1ccc(-c2cc(Cl)ccc2F)cc1)NC(=O)c1cnn[nH]1 [Example 14b, (2R,4R)-2-Amino-5-(5′-chloro-2′-fluorobiphenyl-4-yl)-4-[(3H-[1,2,3]triazole-4-carbonyl)amino]pentanoic Acid Hexyl Ester]	> 10	–	31.6 to 100
COC(=O)N[C@H](C[C@@H](Cc1ccc(-c2cc(Cl)ccc2F)cc1)NC(=O)c1ncc(C)o1)C(=O)O [Example 30-4, (2R,4R)-5-(5′-Chloro-2′-fluorobiphenyl-4-yl)-2-methoxycarbonylamino-4-[(5-methyloxazole-2-carbonyl)amino]pentanoic acid]	> 10	≧9.0	–
CCOC(=O)[C@@H](C[C@@H](Cc1ccc(-c2cc(Cl)ccc2F)cc1)NC(=O)c1cnn[nH]1)CN1CCC1 [Example 84a, (2S,4S)-2-Azetidin-1-ylmethyl-5-(5′-chloro-2′-fluorobiphenyl-4-yl)-4-[(3H-[1,2,3]triazole-4-carbonyl)amino]pentanoic Acid Ethyl Ester]	> 10	–	–
CCOC[C@H](C[C@@H](Cc1ccc(-c2cc(Cl)ccc2F)cc1)NC(=O)c1[nH]nc(C2CC2)c1F)C(=O)O [Example 7-2, (2S,4S)-5-(5′-Chloro-2′-fluorobiphenyl-4-yl)-4-[(5-cyclopropyl-4-fluoro-2H-pyrazole-3-carbonyl)amino]-2-ethoxymethylpentanoic acid]	> 10	≧9.0	–
CCc1nc(C(=O)N[C@H](Cc2ccc(-c3cc(Cl)ccc3F)cc2)C[C@@H](NC(=O)OC)C(=O)O)co1 [Example 30-6, (2R,4R)-5-(5′-Chloro-2′-fluorobiphenyl-4-yl)-4-[(2-ethyl-oxazole-4-carbonyl)amino]-2-methoxycarbonylaminopentanoic acid]	> 10	≧9.0	–

The remaining lines, values ahead:

bioavailability [1] [%]	pKi [2]	Ki [2] [nM]	Structure (SMILES)
> 10	≧9.0	–	CCOc1cc(C(=O)N[C@H](Cc2ccc(-c3cc(Cl)ccc3F)cc2)C[C@@H](COC)C(=O)O)n[nH]1 [Example 2-16, (2S,4S)-5-(5′-Chloro-2′-fluorobiphenyl-4-yl)-4-[(5-ethoxy-1H-pyrazole-3-carbonyl)amino]-2-methoxymethylpentanoic acid]
> 10	≧9.0	–	COC[C@H](C[C@@H](Cc1ccc(-c2cc(Cl)ccc2F)cc1)NC(=O)c1ncc(C)o1)C(=O)O [Example 2-15, (2S,4S)-5-(5′-Chloro-2′-fluorobiphenyl-4-yl)-2-methoxymethyl-4-[(5-methyloxazole-2-carbonyl)amino]pentanoic acid]
> 10	–	≤ 1	Cc1cc(C(=O)NC(Cc2ccc(-c3cc(Cl)ccc3F)cc2)C[C@@H](CC#N)C(=O)O)sn1 (single isomer, unassigned) [Example 52-1]
> 10	≧9.0	–	COC[C@H](C[C@@H](Cc1ccc(-c2cc(Cl)ccc2F)cc1)NC(=O)c1coc(C2CC2)n1)C(=O)O [Example 2-9, (2S,4S)-5-(5′-Chloro-2′-fluorobiphenyl-4-yl)-4-[(2-cyclopropyloxazole-4-carbonyl)amino]-2-methoxymethylpentanoic acid]
> 10	≧9.0	–	COC[C@H](C[C@@H](Cc1ccc(-c2cc(Cl)ccc2F)cc1)NC(=O)c1ncccn1)C(=O)O [Example 2-13, (2S,4S)-5-(5′-Chloro-2′-fluorobiphenyl-4-yl)-2-methoxymethyl-4-[(pyrimidine-2-carbonyl)amino]pentanoic acid]
> 10	–	≤ 1	CCc1cc(C(=O)N[C@H](Cc2ccc(-c3cc(Cl)ccc3F)cc2)C[C@@H](COC)C(=O)O)on1 [Example 1, (2S,4S)-5-(5′-Chloro-2′-fluorobiphenyl-4-yl)-4-[(3-ethylisoxazole-5-carbonyl)amino]-2-methoxymethylpentanoic Acid]
> 10	≧9.0	–	CCOC[C@H](C[C@@H](Cc1ccc(-c2cc(Cl)ccc2F)cc1)NC(=O)c1cc(O)no1)C(=O)O [Example 7-4, (2S,4S)-5-(5′-Chloro-2′-fluoro-biphenyl-4-yl)-2-ethoxymethyl-4-[(3-hydroxy-isoxazole-5-carbonyl)amino]pentanoic acid]
> 10	≧9.0	–	COC[C@H](C[C@@H](Cc1ccc(-c2cc(Cl)ccc2F)cc1)NC(=O)c1n[nH]c(C(F)(F)F)n1)C(=O)O [Example 2-2, (2S,4S)-5-(5′-Chloro-2′-fluorobiphenyl-4-yl)-2-methoxymethyl-4-[(5-trifluoromethyl-1H-[1,2,4]triazole-3-carbonyl)amino]pentanoic acid]
> 10	≧9.0	–	COC[C@H](C[C@@H](Cc1ccc(-c2cc(Cl)ccc2F)cc1)NC(=O)c1cc(OC)no1)C(=O)O [Example 2-6, (2S,4S)-5-(5′-Chloro-2′-fluorobiphenyl-4-yl)-4-[(3-methoxyisoxazole-5-carbonyl)-amino]-2-methoxymethylpentanoic acid]
–	–	1.26 to 3.16	CC1(O)CN(C[C@@H](C[C@@H](Cc2ccc(-c3cc(Cl)ccc3F)cc2)NC(=O)c2c[nH]nn2)C(=O)O)C1 [Example 101c, (2R,4S)-5-(5′-Chloro-2′-fluorobiphenyl-4-yl)-2-(3-hydroxy-3-methylazetidin-1-ylmethyl)-4-[(1H-[1,2,3]triazole-4-carbonyl)amino]pentanoic Acid]
